64 molecules from US20260001871A1, “TRIAZOLE DERIVATIVES AS MODULATORS OF MAS-RELATED G-PROTEIN RECEPTOR D” (ESCIENT PHARMACEUTICALS, INC., priority 2022, published 2026) can be followed below.

The test deals with human MRGPRD (Homo sapiens, UniProt Q8TDS7). Briefly: MRGPRD antagonist activity, IP-One HTRF assay in CHO cells stably expressing human MRGPRD (versus 100 μM β-Alanine agonist). The format is cell-based. The method in brief: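 CHO cells stably expressing human MRGPRD, plated overnight at 37 °C, were treated with antagonist plus agonist in Tris-HCl/NaCl/LiCl buffer pH 8, incubated 1 h at 37 °C then 1 h at room temperature. IP-1 accumulation read by HTRF; IC50 and percent antagonism of maximum efficacy averaged, SEM reported.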
(In TR-FRET formats the signal depends on donor and acceptor labels being close together.)

Chain of human MRGPRD (Q8TDS7 whole entry): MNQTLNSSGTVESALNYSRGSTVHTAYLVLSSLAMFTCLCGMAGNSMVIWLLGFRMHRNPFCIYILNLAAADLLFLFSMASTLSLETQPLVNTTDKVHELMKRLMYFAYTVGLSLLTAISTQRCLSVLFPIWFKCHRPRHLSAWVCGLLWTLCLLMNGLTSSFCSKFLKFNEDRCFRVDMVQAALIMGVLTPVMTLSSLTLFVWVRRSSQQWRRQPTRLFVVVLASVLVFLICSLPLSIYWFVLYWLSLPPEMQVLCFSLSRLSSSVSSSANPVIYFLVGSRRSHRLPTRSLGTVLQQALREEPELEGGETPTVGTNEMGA

The term IC50 denotes the concentration that gives 50% inhibition. In the case of `Cc1cccc(-c2cccc(-n3nnc(C(=O)Nc4ccncc4)c3C3CC3)c2)c1` [Compound 7-321], the IC50 lay in the range of 1000 to 3000 nM.
Next, `O=C(Nc1cncc2[nH]ncc12)c1nnn(-c2ccc(-c3ccccc3)cc2)c1C1CC1` [Compound 14-60]: 1000 to 3000 nM.
For `Cc1cc(NC(=O)c2nnn(-c3ccc(-c4ccc(C#N)cc4)cn3)c2C(C)C)ccn1` [Compound 17-15] the value was 100 to 500 nM.
For `N#Cc1c[nH]nc1-c1ccc(-n2nnc(C(=O)Nc3ccncc3)c2C2CC2)cc1` [Compound 7-143] the value was 500 to 1000 nM; for `O=C(Nc1ccncc1)c1nnn(-c2cccc(-c3cccc(O)c3)c2)c1C1CC1` [Compound 7-299], 1000 to 3000 nM.
`CCn1cc(CNC(=O)c2nnn(-c3ccc(-c4c(C)nn(-c5ccccc5)c4C)cc3)c2C2CC2)cn1` [Compound 10-9] returned an IC50 of less than 100 nM.
Molecule `Cc1ccc(-c2ccc(-n3nnc(C(=O)Nc4ccnc(C)c4)c3C3CC3)cc2)cn1` [Compound 17-9] had a half-inhibitory concentration (IC50) of 100 to 500 nM.
`CCc1cc(NC(=O)c2nnn(-c3ccc(-c4ccccc4)cc3)c2C2CC2)ccn1` [Compound 14-15, 1-([1,1′-biphenyl]-4-yl)-5-cyclopropyl-N-(2-ethylpyridin-4-yl)-1H-1,2,3-triazole-4-carboxamide] gave an IC50 of 100 to 500 nM.
As for `O=C(Nc1ccncc1)c1nnn(-c2ccc(-c3n[nH]c4cnccc34)cc2)c1C1CC1` [Compound 7-165], the IC50 was 1000 to 3000 nM.
For `COc1ccc(-c2cccc(-n3nnc(C(=O)Nc4ccncc4)c3C3CC3)c2)cc1C` [Compound 7-258], the IC50 lay within 500 to 1000 nM.
Next, `Cc1nn2cccnc2c1-c1ccc(-n2nnc(C(=O)Nc3ccncc3)c2C2CC2)cc1` [Compound 7-31]: 100 to 500 nM.
On to `O=C(Nc1ccncc1)c1nnn(-c2ccc(-c3cccc(CC(F)(F)F)c3)cc2)c1C1CC1` [Compound 7-107], for which the IC50 fell in the range of 100 to 500 nM.
In the case of `CC(=O)c1ccccc1-c1cccc(-n2nnc(C(=O)Nc3ccncc3)c2C2CC2)c1` [Compound 7-8], the IC50 is greater than 3000 nM.
`CCn1ccc(-c2cccc(-n3nnc(C(=O)Nc4ccnc(C)c4)c3C3CC3)c2)n1` [Compound 7-262]: the IC50 lay in the range of 500 to 1000 nM.
`Cc1cc(NC(=O)c2nnn(-c3cccc(-c4c(C)nn(C)c4C)c3)c2C2CC2)ccn1` [Compound 7-291] registered an IC50 of 1000 to 3000 nM.
Next, `CCc1cc(NC(=O)c2nnn(-c3ccc(-c4c(C)nn(C)c4C)cc3)c2C2CC2)ccn1` [Compound 9-2]: less than 100 nM.
Molecule `O=C(NCc1c[nH]cn1)c1nnn(-c2ccc(-c3ccccc3)cc2)c1C1CC1` [Compound 14-41] yielded an IC50 of 1000 to 3000 nM.
In turn, `CN(C)c1ccc(-c2ccc(-n3nnc(C(=O)Nc4ccncc4)c3C3CC3)cc2)cc1` [Compound 7-98] came in with an IC50 of 100 to 500 nM.
As for `COc1cc(-c2c(C)nn(C)c2C)ccc1-n1nnc(C(=O)NCc2ccc(C)nc2)c1C1CC1` [Compound 21-2], the IC50 lay within 100 to 500 nM.
In the case of `Cc1cc(-n2nnc(C(=O)Nc3ccncc3)c2C2CC2)ccc1-c1ccc(C#N)cc1` [Compound 7-319], the 50% inhibitory concentration (IC50) lay within 1000 to 3000 nM.
Molecule `Cc1cc(NC(=O)c2nnn(-c3ccc(-c4c(C)nn(-c5ccccc5)c4C)cc3)c2C2CC2)ccn1` [Compound 10-1, 5-cyclopropyl-1-(4-(3,5-dimethyl-1-phenyl-1H-pyrazol-4-yl)phenyl)-N-(2-methylpyridin-4-yl)-1H-1,2,3-triazole-4-carboxamide] had an IC50 of less than 100 nM.
For the molecule `CCc1ccc(-n2nnc(C(=O)Nc3ccncc3)c2C2CC2)cc1-c1cnn(C(C)C)c1` [Compound 7-304], the concentration for half-maximal inhibition (IC50) fell in the range of 1000 to 3000 nM.
With `O=C(Nc1ccncc1)c1nnn(-c2ccc(-c3cn[nH]c3)cc2)c1C1CC1` [Compound 7-173], the IC50 is 1000 to 3000 nM.
`O=C(Nc1ccncc1)c1nnn(-c2ccc(-c3ncc[nH]3)cc2)c1C1CC1` [Compound 7-3] had an IC50 greater than 3000 nM.
The molecule `Cn1ncc2c1CCCC2NC(=O)c1nnn(-c2ccc(-c3ccccc3)cc2)c1C1CC1` (stereo not shown) [Compound 14-38] displayed a half-inhibitory concentration (IC50) of 1000 to 3000 nM.
As to `Cc1n[nH]c2ncnc(NC(=O)c3nnn(C4CC=C(c5ccc(C#N)cc5)CC4)c3C3CC3)c12` (stereo not shown) [Compound 12-2], the IC50 lay within 100 to 500 nM.
Next, `CCn1cc(CNC(=O)c2nnn(-c3ccc(-c4ccc(C(N)=O)cc4)cc3)c2C2CC2)cn1` [Compound 17-8]: 1000 to 3000 nM; `CCn1nc(C)c(-c2ccc(-n3nnc(C(=O)Nc4ccc(NS(C)(=O)=O)cc4)c3C3CC3)cc2)c1C` [Compound 9-28]: 500 to 1000 nM.
Next, `O=C(Nc1ccncc1)c1nnn(-c2ccc(-c3ccoc3)cc2)c1C1CC1` [Compound 7-32]: 100 to 500 nM; `Cn1cc(C(C)(C)NC(=O)c2nnn(-c3ccc(-c4ccccc4)cc3)c2C2CC2)cn1` [Compound 14-85]: greater than 3000 nM.
For `O=C(Nc1ccncc1)c1nnn(-c2ccc(-c3ccc(CO)cc3)cc2)c1C1CC1` [Compound 7-69], the IC50 was 100 to 500 nM.
For the molecule `CC(C)c1c(C(=O)Nc2cccc(C#N)c2)nnn1-c1ccc(-c2cnn(C)c2)cc1` [Compound 17-30], the concentration for half-maximal inhibition (IC50) lay in the range of 500 to 1000 nM.
`CC(C)n1cc(-c2cccc(-n3nnc(C(=O)Nc4ccncc4)c3C3CC3)c2)cn1` [Compound 7-251]: the concentration for half-maximal inhibition (IC50) lay within 500 to 1000 nM.
In turn, `O=C(Nc1ccncc1)c1nnn(CC(F)(F)F)c1C1CC1` [Compound 6-3] registered an IC50 of 500 to 1000 nM.
In the case of `N#CCc1ccc(-c2ccc(-n3nnc(C(=O)NC4(c5cccnc5)CC4)c3C3CC3)cc2)cc1` [Compound 18-9], the IC50 lay within 1000 to 3000 nM.
`Cc1nn(C)c(C)c1-c1ccc(-n2nnc(C(=O)Nc3ccncc3)c2C2CC2)cc1F` [Compound 7-234] came in with an IC50 of 100 to 500 nM.
The molecule `Cc1nn(C)c(C)c1-c1ccc(-n2nnc(C(=O)Nc3ccncc3)c2C2CC2)c(F)c1` [Compound 7-221] had an IC50 of less than 100 nM.
As for `Cc1ccc(-n2nnc(C(=O)Nc3ccnc(C)c3)c2C2CC2)cc1` [Compound 1-4, 5-cyclopropyl-N-(2-methylpyridin-4-yl)-1-(p-tolyl)-1H-1,2,3-triazole-4-carboxamide], the IC50 was in the range of 100 to 500 nM.
Take `CC(=O)c1cccc(-c2cc(-n3nnc(C(=O)Nc4ccncc4)c3C3CC3)ccc2C)c1` [Compound 7-259]: the IC50 was 500 to 1000 nM.
Next, `Cn1ncc(CO)c1-c1ccc(-n2nnc(C(=O)Nc3ccncc3)c2C2CC2)cc1` [Compound 7-192]: 1000 to 3000 nM; `Cc1n[nH]c2cccc(NC(=O)c3nnn(-c4ccc(-c5ccccc5)cc4)c3C3CC3)c12` [Compound 14-61]: 1000 to 3000 nM; `Cc1ccc(C2(NC(=O)c3nnn(-c4ccc(-c5ccc(C#N)cc5C)cc4)c3C3CC3)CC2)cn1` [Compound 9-22]: 100 to 500 nM.
Molecule `CCn1cc(NC(=O)c2nnn(-c3ccc(-c4ccccc4)cc3)c2C2CC2)c(C#N)n1` [Compound 14-78] had an IC50 greater than 3000 nM.
`O=C(NCCc1c[nH]cn1)c1nnn(-c2ccc(-c3ccccc3)cc2)c1C1CC1` [Compound 14-42] had an IC50 of 1000 to 3000 nM.
Consider `CCn1cc(CNC(=O)c2nnn(-c3ccc(-c4ccc(C#N)cc4)cn3)c2C2CC2)cn1` [Compound 22-4], for which the IC50 lay within 1000 to 3000 nM.
As to `COc1ccc(-c2ccc(-n3nnc(C(=O)Nc4ccncc4)c3C3CC3)cc2)c(C)c1` [Compound 7-34], the IC50 lay in the range of 100 to 500 nM.
For `CCO/C=C/c1cc(-n2nnc(C(=O)Nc3ccncc3)c2C2CC2)ccc1-c1c(C)nn(C)c1C` [Compound 25-2] the value was 1000 to 3000 nM.
For the molecule `O=C(Nc1ccncc1)c1nnn(-c2cccc(-c3ccn[nH]3)c2)c1C1CC1` [Compound 7-295], the IC50 lay in the range of 1000 to 3000 nM.
Turning to `COc1ccc2[nH]cc(CC(C)NC(=O)c3nnn(-c4ccc(-c5ccccc5)cc4)c3C3CC3)c2c1` (stereo not shown) [Compound 14-59], the half-maximal inhibitory concentration (IC50) lay in the range of 1000 to 3000 nM.
The molecule `O=C(Nc1ccncc1)c1nnn(-c2cccc(-c3cccc(F)c3)c2)c1C1CC1` [Compound 7-308] had an IC50 of 1000 to 3000 nM.
`Cc1ccc(-n2nnc(C(=O)Nc3ccncc3)c2C2CC2)c(C)c1` [Compound 2-8]: the IC50 was in the range of 1000 to 3000 nM.
Take `Cc1cc(C#N)ccc1-c1ccc(-n2nnc(C(=O)NC3(c4cncc(Cl)c4)CC3)c2C2CC2)cc1` [Compound 18-16]: the IC50 was in the range of 500 to 1000 nM.
Molecule `O=C(Nc1ccncc1)c1nnn(-c2ccc(-c3ccccc3-c3ccccc3)cc2)c1C1CC1` [Compound 7-327] had an IC50 of 1000 to 3000 nM.
The molecule `O=C(Nc1ccncc1)c1nnn(-c2ccc(-c3ccc(Cl)cc3)cc2)c1C1CC1` [Compound 7-90] registered an IC50 of 100 to 500 nM.
`O=C(Nc1ccncc1)c1nnn(-c2cccc(-c3cnn(Cc4ccccc4)c3)c2)c1C1CC1` [Compound 7-270] showed an IC50 of 500 to 1000 nM.
`CC1(C)COCCC1NC(=O)c1nnn(-c2ccc(-c3ccccc3)cc2)c1C1CC1` (stereo not shown) [Compound 14-44] came in with an IC50 of 1000 to 3000 nM.
`N#Cc1cnn(-c2ccccc2)c1-c1ccc(-n2nnc(C(=O)Nc3ccncc3)c2C2CC2)cc1` [Compound 7-216] registered an IC50 greater than 3000 nM.
On to `Cc1ccc(CNC(=O)c2nnn(-c3ccc(-c4c(C)nn(-c5ccccc5)c4C)cc3)c2C2CC2)cn1` [Compound 15-22], for which the IC50 was less than 100 nM.
`O=C(N[C@H]1CCc2ccccc21)c1nnn(-c2ccc(-c3ccccc3)cc2)c1C1CC1` [Compound 14-57]: the half-maximal inhibitory concentration (IC50) was 1000 to 3000 nM.
Molecule `Cc1nn(C)c(C)c1-c1ccc(-n2nnc(C(=O)NC3(c4cccnc4)CC3)c2C2CC2)cc1` [Compound 18-17] registered an IC50 of 1000 to 3000 nM.
Regarding `O=C(Nc1ccncc1)c1nnn(-c2ccc(-c3nccs3)cc2)c1C1CC1` [Compound 7-177], the IC50 was 1000 to 3000 nM.
Molecule `O=C(Nc1ccncc1)c1nnn(-c2ccc(-c3cccnc3)cc2)c1C1CC1` [Compound 7-179] yielded an IC50 of 1000 to 3000 nM.
On to `Cc1cc(NC(=O)c2nnn(-c3ccc(-c4c(C)nn(C)c4C)cc3)c2C2CC2)ccn1` [Compound 7-12, 5-cyclopropyl-N-(2-methylpyridin-4-yl)-1-(4-(1,3,5-trimethyl-1H-pyrazol-4-yl)phenyl)-1H-1,2,3-triazole-4-carboxamide], for which the IC50 is less than 100 nM.
`Cc1cc(NC(=O)c2nnn(-c3ccc(-c4ccc(C#N)c(F)c4)cc3)c2C2CC2)cc(C)n1` [Compound 7-87] gave an IC50 of 100 to 500 nM.
